PMC8480326, “Chemoenzymatic glycan-selective remodeling of a therapeutic lysosomal enzyme with high-affinity M6P-glycan ligands. Enzyme substrate specificity is the name of the game” (Chemical Science, 2021)
Entries after “also recorded” stand apart in the source; their conditions may differ. One block for each substance: values may come before it.

What was measured:
CI-MPR = target: CI-MPR; design: method as in PMID 30843882; details: rhGAA with higher M6P content; read-out: apparent KD; cited from earlier work
[1] = tested on: GAA-deficient multinucleated myotubes (KO); assay: Cell-associated GAA activity in treated GAA KO myotubes; type: cell-based, mouse; details: 5 μM for 24 hours, n = 5, versus untreated cells
From the text: To evaluate the effect of the Endo-A (69) and Endo-F3 (70) remodeled rhGAA in the disease-relevant muscle cells, we used GAA-deficient multinucleated myotubes (KO) as an in vitro cell model system for Pompe disease.[48,49] These myotubes are formed from conditionally immortalized myoblasts derived from the GAA knockout mice; unlike myoblasts, the differentiated myotubes replicate the primary defect of the disease, namely, the enlargement of glycogen-laden lysosomes.
The available anti-human GAA antibodies detected a strong non-specific band in mouse muscle cells as indicated by its presence in both WT and GAA-deficient cell (Fig. 4b, right panel). Previous studies have shown that the mature 76 kDa form of GAA has a higher affinity and activity towards glycogen.[31,50] […]
BIAcore T200 evaluation software. rhGAA enzyme activity assay. The enzyme activity was assayed by using the substrate 4-methylumbelliferyl-α-D-glucopyranoside (4-MUG) (Sigma-Aldrich) which generates fluorescence on digestion.[9, 10] […] The reaction was monitored at 0 min, 1 min, 2 min, 5 min, 10 min and 15 min by taking 20 μL of aliquot and add ing 50 μL of stop buffer (100 mM glycine/NaOH, pH 11). Fluorescence was measured by a spectrophotometer with 355 nm excitation and 460 nm emission, and the error bar was based on three independent assays. […]

[2] = tested on: GAA-deficient multinucleated myotubes (KO); assay: Western blot (anti-human GAA) of treated muscle cell lysates; type: cell-based, mouse; details: 5 μM for 24 hours, Western blot with anti-human GAA antibodies
Description: The available anti-human GAA antibodies detected a strong non-specific band in mouse muscle cells as indicated by its presence in both WT and GAA-deficient cell (Fig. 4b, right panel). Previous studies have shown that the mature 76 kDa form of GAA has a higher affinity and activity towards glycogen.[31,50]
Fig. 4 Effect of the therapeutic enzymes in GAA KO (KO) myotubes. […] GAA activity in cell lysates of wild type (WT) myotubes was measured for comparison. The KO cells were treated for 24 hours with 5 μM of each of the recombinant enzyme; n = 5 for each condition. Statistical significance was determined by one-way ANOVA; graph represents mean ± SD. *p <0.05; ****p <0.0001; ns – statistically insignificant. (b) Western blot analysis (with anti-human GAA antibodies) of muscle cell lysates treated with the recombinant enzymes; GAPDH was used as loading control. […]
(§1) Measurement of cell-associated GAA activity. The GAA activity in the cells was measured by using 4-methylumbelliferyl-α-D-glucopyranoside (4-MU- α-glucopyranoside; Sigma-Aldrich #M9766) as the fluorogenic GAA substrate as described.[13] […] Fluorescence was measured on a multi-label plate reader (TECAN, SPARK 10M) at 360 nm excitation/465 nm emission.
(§2) Measurement of the glycogen content. The glycogen content was measured as the amount of glucose released after glycogen digestion with Aspergillus Niger amyloglucosidase (Sigma-Aldrich). […]

[3] = tested on: GAA-deficient multinucleated myotubes (KO); assay: Western blot of lysosomal (LAMP1) and endosomal (Rab5) markers; type: cell-based, mouse; details: 5 μM for 24 hours
[4] = target: T1, Recombinant human IGF-II R (CI-MPR) (Homo sapiens, UniProt P11717); assay: SPR binding to immobilized CI-MPR; details: SPR, immobilized CI-MPR
T1 construct: purchased R&D Systems
Description: Surface Plasmon Resonance (SPR) Measurements. SPR measurements were performed on a Biacore T200 instrument (GE Healthcare). Recombinant human IGF-II R (CI-MPR) was purchased
from R&D Systems. Approximately 7000 resonance units (RU) of CI-MPR was immobilized on a
CM5 sensor chip in a sodium acetate buffer (25 μg/mL, pH 4.0) at 25 °C, using the amine coupling kit
provided by the manufacturer. Mannose 6-phosphate containing glycopeptides or glycoproteins were
determined at 25 °C under a flow rate of 10 μL/min. HBS-P+ buffer (10 mM HEPES, 150 mM NaCl,
0.05% surfactant P20, pH 7.4) was used as sample buffer and running buffer. Association was
measured for 3 min and dissociation for 10 min at same flow rate (10 μL/min). The surface
and glycoprotein analytes flowed over an immobilized chip with 2-fold serial dilution of the highest
concentration of 4 μM (for glycopeptides) or 1 μM (for RNase B) or 250 nM (for rhGAA).
analyses were performed by global fitting of the binding data to a 1:1 Langmuir binding model using

[5] = tested on: GAA-deficient multinucleated myotubes (KO); assay: Lamp1 immunostaining of myotubes (lysosomal swelling); type: cell-based, mouse; details: 5 μM for 24 hours, confocal images
From the text: The effect of the Endo-A and Endo-F3 remodeled rhGAA was confirmed by immunostaining of myotubes with Lamp1. […] The therapeutic potential of the M6P glycan-remodeled rhGAA in lysosomal glycogen reduction and reversal of muscle pathology will be further evaluated in Pompe disease animal models in future studies.
Fig. 5 Effect of the therapeutic enzymes on lysosomal swelling and glycogen content in GAA KO (KO) myotubes. […] Nuclei are stained with DAPI (blue). Bar: 10 μm. (b) Graph illustrates glycogen levels measured in cell lysates from WT, untreated- and treated KO myotubes. […] Statistical significance was determined by one-way ANOVA; graph represents mean ± SD. **p <0.01; ****p <0.0001; ns – statistically insignificant.
as §1, §2

T1 sequence (P11717 41-2491): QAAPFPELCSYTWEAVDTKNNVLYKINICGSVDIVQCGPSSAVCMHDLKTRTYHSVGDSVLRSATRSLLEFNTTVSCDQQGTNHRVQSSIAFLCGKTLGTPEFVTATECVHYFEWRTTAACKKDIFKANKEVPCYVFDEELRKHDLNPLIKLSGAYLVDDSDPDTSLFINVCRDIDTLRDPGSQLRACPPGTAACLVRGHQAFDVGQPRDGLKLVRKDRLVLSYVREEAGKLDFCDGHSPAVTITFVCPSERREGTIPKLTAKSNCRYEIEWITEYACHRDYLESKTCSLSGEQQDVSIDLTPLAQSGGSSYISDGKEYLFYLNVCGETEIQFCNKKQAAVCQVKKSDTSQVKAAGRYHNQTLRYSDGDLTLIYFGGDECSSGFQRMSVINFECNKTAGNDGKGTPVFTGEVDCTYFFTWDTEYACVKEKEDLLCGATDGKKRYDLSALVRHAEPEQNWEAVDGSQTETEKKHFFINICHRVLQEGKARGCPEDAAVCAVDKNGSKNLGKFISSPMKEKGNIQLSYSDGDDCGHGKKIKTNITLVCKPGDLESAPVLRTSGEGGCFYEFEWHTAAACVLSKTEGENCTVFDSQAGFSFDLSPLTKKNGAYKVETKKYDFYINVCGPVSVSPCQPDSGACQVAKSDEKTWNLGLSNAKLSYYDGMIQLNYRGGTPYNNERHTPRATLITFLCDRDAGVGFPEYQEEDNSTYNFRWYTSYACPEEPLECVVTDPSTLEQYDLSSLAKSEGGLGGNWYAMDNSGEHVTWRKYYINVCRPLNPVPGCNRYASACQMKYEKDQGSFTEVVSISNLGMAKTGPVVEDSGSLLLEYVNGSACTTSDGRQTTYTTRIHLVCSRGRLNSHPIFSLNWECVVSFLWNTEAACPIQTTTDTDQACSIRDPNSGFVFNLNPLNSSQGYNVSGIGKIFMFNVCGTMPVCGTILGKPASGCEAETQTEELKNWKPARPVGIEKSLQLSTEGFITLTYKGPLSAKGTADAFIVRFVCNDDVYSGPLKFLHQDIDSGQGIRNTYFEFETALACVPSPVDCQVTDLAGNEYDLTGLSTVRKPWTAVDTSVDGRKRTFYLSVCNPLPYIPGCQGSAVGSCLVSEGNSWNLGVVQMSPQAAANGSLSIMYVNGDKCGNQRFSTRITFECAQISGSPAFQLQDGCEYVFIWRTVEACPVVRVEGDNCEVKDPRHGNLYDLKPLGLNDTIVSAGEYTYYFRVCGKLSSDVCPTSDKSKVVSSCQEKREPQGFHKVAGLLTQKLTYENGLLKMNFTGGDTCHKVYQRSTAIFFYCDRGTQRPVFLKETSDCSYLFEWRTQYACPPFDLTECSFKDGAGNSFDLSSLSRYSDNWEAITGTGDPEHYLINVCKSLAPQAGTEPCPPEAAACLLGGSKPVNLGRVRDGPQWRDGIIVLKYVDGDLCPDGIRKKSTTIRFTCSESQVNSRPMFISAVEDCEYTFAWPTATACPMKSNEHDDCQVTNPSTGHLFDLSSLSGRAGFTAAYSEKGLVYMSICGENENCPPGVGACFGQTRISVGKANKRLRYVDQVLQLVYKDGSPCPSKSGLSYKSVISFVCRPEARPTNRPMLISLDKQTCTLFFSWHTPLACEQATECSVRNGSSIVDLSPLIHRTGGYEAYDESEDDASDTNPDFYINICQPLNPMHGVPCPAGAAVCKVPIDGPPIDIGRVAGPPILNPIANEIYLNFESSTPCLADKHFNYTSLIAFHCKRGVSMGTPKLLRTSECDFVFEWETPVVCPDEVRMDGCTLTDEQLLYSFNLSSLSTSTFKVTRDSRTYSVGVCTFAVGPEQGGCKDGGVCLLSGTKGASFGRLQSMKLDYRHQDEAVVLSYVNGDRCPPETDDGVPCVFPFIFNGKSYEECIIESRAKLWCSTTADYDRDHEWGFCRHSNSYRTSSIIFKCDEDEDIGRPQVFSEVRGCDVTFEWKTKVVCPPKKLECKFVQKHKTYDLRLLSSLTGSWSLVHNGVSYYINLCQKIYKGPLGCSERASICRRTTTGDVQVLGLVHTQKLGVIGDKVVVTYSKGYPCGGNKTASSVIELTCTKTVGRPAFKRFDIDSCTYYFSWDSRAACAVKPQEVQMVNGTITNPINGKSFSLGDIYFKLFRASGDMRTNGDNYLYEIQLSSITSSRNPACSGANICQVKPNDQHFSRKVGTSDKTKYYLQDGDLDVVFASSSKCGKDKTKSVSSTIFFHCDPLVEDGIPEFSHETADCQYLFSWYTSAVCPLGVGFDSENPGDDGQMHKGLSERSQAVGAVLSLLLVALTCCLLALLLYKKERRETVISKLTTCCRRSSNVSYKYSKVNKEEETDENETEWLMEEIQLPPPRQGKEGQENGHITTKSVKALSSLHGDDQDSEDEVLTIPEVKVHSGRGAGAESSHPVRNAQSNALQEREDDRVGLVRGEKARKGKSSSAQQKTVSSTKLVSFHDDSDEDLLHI

Substance: ATB200: a novel rhGAA carrying a higher M6P content
- Kd (CI-MPR): 2 to 4 nM

- Kd ([4]; 25 °C, average of three independent experiments): 14 ± 3.7 nM
Substance: Lumizyme: recombinant human acid α-glucosidase (rhGAA; Lumizyme, Sanofi Genzyme) used for treatment of Pompe disease
- GAA activity in cell lysates [1]: only a slight increase (statistically insignificant)
- processed, mature lysosomal form of rhGAA (76 kDa) in cells [2]: barely detectable
- levels of endosomal (Rab5) and lysosomal (LAMP1) markers [3]: remained the same as in the untreated GAA-deficient cells
- enlarged LAMP1-positive lysosomes [5]: Enlarged lysosomes were seen; also recorded: can be detected

- affinity for CI-MPR (in words) [4]: lost its binding affinity
Substance: deglycosylated rhGAA: rhGAA treated with wild-type Endo-A to remove the high-mannose N-glycans including the M6P glycans
